# What was measured:
# BMDMs [1] = format: cell-based, mouse; details: zVAD 20 μM
# Procedure: Cell death assays. Cell viability and Caspase 3/7 activity were measured using CellTiter Glo (G7571, Promega) or CaspaseGlo 3/7 (G8091, Promega) respectively, according to the manufacturer's protocol, with modification.
# Cell death assays. Cell viability and Caspase 3/7 activity were measured using CellTiter Glo (G7571, Promega) or CaspaseGlo 3/7 (G8091, Promega) respectively, according to the manufacturer's protocol, with modification. Briefly, 3.0×10^5 BMDMs/well were plated in 24-well plates and infected at an MOI of 0.1 for 1 h in serum-free media. Media was replaced with complete media, or for addition of chemical inhibitors, viral inoculum was replaced with completed BMM media containing indicated concentration of inhibitors. Infected BMDMs were incubated for 24h at 37° C./5% CO2. BMDMs were washed twice with 1×PBS and lysed with 100 μL Glo reagent/medium mixture (1:1). 50 μL of cell lysate was used for measuring the luminescence signal. Standard deviation and unpaired t test were performed on technical triplicates and data are representative of three independent experiments. Graphs of cell viability were generated using Prism 7 software (GraphPad Software, Inc.).
# BMDMs [2] = format: cell-based, mouse; details: N15m1-infected BMDMs, MOI 0.1, 18 hpi; zVAD 20 μM, C16 1 μM
# Procedure: Bioanalyzer RNA analysis. Equal amounts of total RNA purified from BMDMs were analyzed on an Agilent 2100 Bioanalyzer using RNA Nano LabChips.
substance,measurement,setting,value
zVAD,prevention of virus-induced cell death by inhibitor,"BMDMs [1]; N15m1-infected BMDMs, 24 hpi, Nec-1 25 μM, VX-765 20 μM",prevented virus-induced cell death
same,effect of inhibitor on caspase 3/7 activation in N15m1-infected BMDMs,BMDMs [1]; C16 1 μM,inhibited by zVAD
same,effect of inhibitor on degradation of host rRNA,BMDMs [2],not inhibited

# — patent publication US11684667B2 (priority 2017, dated 2023)
